From patent publication US11389415B2, “Methods of regulating cannabinoid receptor activity-related disorders and diseases” (The United States of America as represented by the …, priority 2012, dated 2022)

System: rat C6 glioma xenografts
Assay: Gene expression profiling (microarray, GO term and PAGE gene set analysis) in rat C6 glioma xenografts
Assay type: in vivo, mouse
Details: for Z score, GO0000775 Chromosome pericentric region / Z score, GO0004527 Exonuclease activity / Z score, GO0005634 Nucleus / Z score, GO0006260 DNA replication / Z score, GO0006270 DNA replication initiation / Z score, GO0007049 Cell cycle / Z score, GO0007051 Spindle organization and biogenesis / Z score, GO0007067 Mitosis / Z score, GO0048015 Phosphoinositide mediated signaling / Z score, GO0051301 Cell division: MNF_Crtl
Description: Analysis of gene expression in rat C6 glioma xenografts. Total RNA was isolated from rat C6 glioma xenografts harvested from vehicle and MNF-treated mice (n=3 per group, cohort 1). This analysis was repeated in a second cohort of animals (n=3 per group, cohort 2). Total cellular RNA was extracted using an RNeasy plus mini kit (QIAGEN, Valencia, Calif.), and its quality was assessed using an Agilent BioAnalyzer using RNA 6000 Nano Chips (Agilent Technologies, Santa Clara, Calif.). Transcriptional profiling was determined using Illumina Sentrix BeadChips (Illumina, San Diego, Calif.). Total RNA was used to generate biotin-labeled cRNA with the Illumina TotalPrep RNA Amplification Kit. In short, 0.5 ug of total RNA was first converted into single-stranded cDNA with reverse transcriptase using an oligo-dT primer containing the T7 RNA polymerase promoter site and then copied to produce double-stranded cDNA molecules. The double-stranded cDNA was cleaned and concentrated with the supplied columns and used in an overnight in-vitro transcription reaction where single-stranded RNA (cRNA) was generated incorporating biotin-16-UTP. A total of 0.75 μg of biotin-labeled cRNA was hybridized at 58° C. for 16 hours to Illumina's Sentrix Rat Ref-12 Expression BeadChips. Each BeadChip has ˜22,000 well-annotated RefSeq transcripts with approximately 30-fold redundancy. The arrays were washed, blocked and the labeled cRNA was detected by staining with streptavidin-Cy3. Hybridized arrays were scanned using an Illumina BeadStation 500× Genetic Analysis Systems scanner and the image data extracted using Illumina's GenomeStudio software, version 1.6.1. For statistical analysis, the expression data were filtered to include only probes with a consistent signal on each chip and an Illumina detecton p value <0.02.
Correlation analysis, sample clustering analysis and principal component analysis was performed to identify/exclude any possible outliers. The resulting dataset was next analyzed with DIANE 6.0, a spreadsheet-based microarray analysis program using value statistics for Z-Score reliability below 0.05; and mean background-corrected signal intensity greater than zero.
Gene set enrichment analysis use gene expression values or gene expression change values for all of the genes in the microarray. Parametric analysis of gene set enrichment (PAGE) was used using the WEB-PAGE GSA tool for gene set analysis. Gene Sets include the MSIG database, Gene Ontology Database, GAD human disease and mouse phenotype gene sets were used to explore functional level changes. Gene-gene interaction was also analyzed using the INGENUITY® Pathway Analysis (IPA) system (INGENUITY® Systems).

[1] = Table 9, gene sets influenced by MNF treatment

## COc1ccc(C[C@@H](C)NC[C@H](O)c2cc(O)cc(O)c2)c2ccccc12 [(R,R′)-MNF, (R,R′)-4′-methoxy-1-naphthylfenoterol]
MNF_Control, cohort 2
  Z score, SHEPARD_GENES_COMMON_BW_CB_MO: −4.3867
  Z score, STEMCELL_NEURAL_UP: −5.0064
  Z score, TARTE_MATURE_PC: 5.3293
  Z score, TARTE_PLASMA_BLASTIC: −6.7905
  Z score, VERNELL_PRB_CLSTR1: −6.5636
  Z score, YU_CMYC_UP: −7.3723
  Z score, ZHAN_MM_CD138_PR_VS_REST: −9.0080
MNF_Control, combined cohorts
  Z score, ADIP_DIFF_CLUSTERS: −7.9684
  Z score, ATRBRCAPATHWAY: −3.4407
  Z score, BRCA_PROGNOSIS_NEG: −6.5976
  Z score, BRENTANI_REPAIR: −4.2370
  Z score, CANCER_UNDIFFERENTIATED_META_UP: −7.7981
  Z score, CELL_CYCLE: −8.6730
  Z score, CELL_CYCLE_KEGG: −7.8764
  Z score, CMV_IE86_UP: −8.5032
  Z score, CROONQUEST_IL6_STARVE_UP: −10.7172
  Z score, CROONQUIST_IL6_RAS_DN: −9.7453
  Z score, DAC_FIBRO_DN: −6.4794
  Z score, DNA_REPLICATION_REACTOME: −7.3185
  Z score, DOX_RESIST_GASTRIC_UP: −10.1840
  Z score, E2F1_DNA_UP: −5.4288
  Z score, GAY_YY1_DN: −7.4972
  Z score, GOLDRATH_HP: −3.4750
  Z score, HDACI_COLON_BUT12 HRS_UP: 5.8481
  Z score, HDACI_COLON_BUT16HRS_UP: 4.8024
  Z score, HDACI_COLON_BUT24HRS_UP: 4.4492
  Z score, HDACI_COLON_TSABUT_UP: 5.2313
  Z score, HIPPOCAMPUS_DEVELOPMENT_POSTNATAL: 11.4209
  Z score, HOFFMANN_BIVSBII_BI_TABLE2: −8.5773
  Z score, HYPOPHYSECTOMY_RAT_DN: 5.3951
  Z score, IDX_TSA_UP_CLUSTER3: −11.3388
  Z score, IRITANI_ADPROX_LYMPH: −5.7142
  Z score, KAMMINGA_EZH2_TARGETS: −8.8163
  Z score, KENNY_WNT_UP: −6.9481
  Z score, LAMB_CYCLIN_D3_GLOCUS: −5.0503
  Z score, LEE_TCELLS2_UP: −6.9464
  Z score, LEE_TCELLS3_UP: −10.3427
  Z score, LI_FETAL_VS_WT_KIDNEY_DN: −10.4609
  Z score, MANALO_HYPOXIA_DN: −6.7155
  Z score, MIDDLEAGE_DN: −8.2457
  Z score, MOREAUX_TACI_HI_IN_PPC_UP: −4.9180
  Z score, MOREAUX_TACI_HI_VS_LOW_DN: −5.1872
  Z score, OLDAGE_DN: −8.1220
  Z score, P21_P53_ANY_DN: −8.8530
  Z score, PEART_HISTONE_DN: −5.7817
  Z score, PODI_KO_UP: −5.1416
  Z score, PRMT5_KD_UP: −8.9362
  Z score, REN_E2F1_TARGETS: −4.4393
  Z score, SASAKI_ATL_UP: −7.2897
  Z score, SASAKI_TCELL_LYMPHOMA_VS_CD4_UP: −7.2897
  Z score, SERUM_FIBROBLAST_CELLCYCLE: −12.2668
  Z score, SHEPARD_BMYB_MORPHOLINO_DN: −6.0639
  Z score, SHEPARD_CRASH_AND_BURN_MUT_VS_WT_DN: −5.5788
  Z score, SHEPARD_GENES_COMMON_BW_CB_MO: −5.7440
  Z score, STEMCELL_NEURAL_UP: −7.2833
  Z score, TARTE_MATURE_PC: 6.8026
  Z score, TARTE_PLASMA_BLASTIC: −8.3308
  Z score, VERNELL_PRB_CLSTR1: −7.4144
  Z score, YU_CMYC_UP: −8.4501
  Z score, ZHAN_MM_CD138_PR_VS_REST: −10.7002
Combined
  Z score, GO0000775 Chromosome pericentric region: −6.3081
  Z score, GO0004527 Exonuclease activity: −5.8765
  Z score, GO0005634 Nucleus: −9.4291
  Z score, GO0006260 DNA replication: −7.3157
  Z score, GO0006270 DNA replication initiation: −5.0248
  Z score, GO0007049 Cell cycle: −9.3510
  Z score, GO0007051 Spindle organization and biogenesis: −6.7039
  Z score, GO0007067 Mitosis: −10.1574
  Z score, GO0048015 Phosphoinositide mediated signaling: −5.2545
  Z score, GO0051301 Cell division: −10.1585
Set 1
  Z score, GO0000775 Chromosome pericentric region: −6.7644
  Z score, GO0004527 Exonuclease activity: −2.5829
  Z score, GO0005634 Nucleus: −2.1680
  Z score, GO0006260 DNA replication: −4.7695
  Z score, GO0006270 DNA replication initiation: −4.0283
  Z score, GO0007049 Cell cycle: −5.1361
  Z score, GO0007051 Spindle organization and biogenesis: −4.6166
  Z score, GO0007067 Mitosis: −7.5266
  Z score, GO0048015 Phosphoinositide mediated signaling: −4.2781
  Z score, GO0051301 Cell division: −6.9059
Set 2
  Z score, GO0000775 Chromosome pericentric region: −3.5296
  Z score, GO0004527 Exonuclease activity: −5.4622
  Z score, GO0005634 Nucleus: −9.9454
  Z score, GO0006260 DNA replication: −6.0446
  Z score, GO0006270 DNA replication initiation: −3.7775
  Z score, GO0007049 Cell cycle: −8.0162
  Z score, GO0007051 Spindle organization and biogenesis: −5.2288
  Z score, GO0007067 Mitosis: −7.6563
  Z score, GO0048015 Phosphoinositide mediated signaling: −3.5441
  Z score, GO0051301 Cell division: −8.0673
[1]
  Z score, CELL_CYCLE: −7.4222
  Z score, CROONQUIST_IL6_STARVE_UP: −9.0059
  Z score, HDACI_COLON_BUT12 HRS_UP: 3.6676
  Z score, HIPPOCAMPUS_DEVELOPMENT_POSTNATAL: 10.3511
  Z score, HYPOPHYSECTOMY_RAT_DN: 3.9294
  Z score, IDX_TSA_UP_CLUSTER3: −10.1593
  Z score, P21_P53_ANY_DN: −7.4300
  Z score, SERUM_FIBROBLAST_CELLCYCLE: −10.6997
  Z score, TARTE_MATURE_PC: 5.3293
